Experimental data published in PMC6458850, “CXXC5 mediates growth plate senescence and is a target for enhancement of longitudinal bone growth” (Life Science Alliance, 2019).

Assays:
[1] = system: growth plates of proximal tibiae; test: Growth plate senescence and longitudinal bone growth in KY19382-treated mice; type: in vivo, mouse
Description: Figure 5. The effects of KY19382 on growth plate senescence and longitudinal bone growth. (A-I) KY19382 (0.1 mg/kg) was administered to 7-wk-old mice (A-E) or 3-wk-old mice (F-I) by daily intraperitoneal injection for 2 wk (n = 7). H&E staining, IHC analyses with the indicated antibodies, and TRAP staining in the growth plates of proximal tibiae treated with KY19382 (A, F). Quantitative analyses of the cell number per column (mean ± SEM, n = 7; t test, ***P < 0.0005) (B) or the height (mean ± SEM, n = 7; t test, ***P < 0.0005) (G) of resting zone and proliferative zone (RZ&PZ) and hypertrophic zone (HZ) in the growth plates of proximal tibiae. Quantitative analyses of BrdU-positive cells in the growth plates (mean ± SEM, n = 5; t test, ***P < 0.0005) (C, H). Quantitative analyses of the number of TRAP-positive foci along 250 μm of the cartilage/bone interface (mean ± SEM, n = 3; t test, *P < 0.05) (D, I). Immunoblot analyses with the indicated antibodies in the growth plate of proximal tibiae of mice treated with KY19382 (E). Scale bars, 50 μm. (J) 3-wk-old mice were intraperitoneally injected with KY19382 (0.1 mg/kg) daily for 10 wk. Representative radiographs are shown (left), and tibial length was measured (right) (mean ± SEM, n = 7-15; t test, ***P < 0.0005). The area within the dashed lines indicates the growth plate zone. n.s., no significance; TRAP, tartrate-resistant acid phosphatase. Cxxc5^-/- mice were established in a previous study ([Kim et al, 2015]). To manipulate growth plate senescence by estrogen, 3-wk-old Cxxc5^+/+ and Cxxc5^-/- male mice received weekly i.m. injections of either 70 μg/kg estradiol (E2) cypionate (Sigma-Aldrich) or vehicle (cottonseed oil) for 3 wk. To investigate the effects of KY19382 treatment on longitudinal bone growth, C57BL/6 male mice were purchased from KOATECH (Gyeonggido, Korea). KY19382 (0.1 mg/kg) was administered daily by i.p. injection to 3- and 7-wk-old mice for 2 wk or to 3-wk-old mice for 10 wk. For BrdU labeling experiments, the mice were i.p. injected with 50 mg/kg BrdU (Sigma-Aldrich) before 24 h to euthanize. All animal procedures were approved by the Institutional Animal Care and Use Committee of Yonsei University (Korea) and conducted based on the guidelines of the Korean Food and Drug Administration. Plain radiographs were taken using an X-ray apparatus (KODAK DXS 4000 Pro SYSTEM; Carestream Health). The tissues were fixed in 4% PFA, decalcified in 10% EDTA (pH 7.4), dehydrated, embedded in paraffin, and sectioned to 4-μm thickness (Leica Microsystems). The tissues sections were rehydrated and used for further analyses, including H&E, TRAP, and IHC staining. To perform IHC staining, the sections were incubated with citrate buffer (pH 6.0) at 80°C for 30 min, with 0.05% trypsin working solution (pH 7.8) for 30 min at 37°C, or with 0.5% pepsin (Sigma-Aldrich) for 15 min at 37°C. Then, the sections were blocked with 5% normal goat serum (Vector Laboratories) and 0.3% Triton X-100 in PBS for 1 h at room temperature. For 3,3'-diaminobensidine (DAB) staining, the sections were incubated with 0.345% H2O2 for 15 min. Before incubating the sections with mouse primary antibody, mouse IgG was blocked using a M.O.M kit (Vector Laboratories). The sections were incubated at 4°C overnight with the following primary antibodies: anti-β-catenin (#610154; 1:50; BD Bioscience), anti-CXXC5 (1:200; lab-made) anti-BrdU ([…]; 1:200; DAKO), anti-COL2A1 (PA5-11462; 1:100; Thermo Fisher Scientific), anti-Ki67 (ab15580; 1:200; Abcam), and anti-RUNX2 (ab23981; 1:200; Abcam). Then, the sections were incubated at room temperature for 1 h with biotinylated anti-mouse (BA-9200; 1:200; Vector Laboratories) or biotinylated anti-rabbit (BA-1000; 1:200; Vector Laboratories) secondary antibodies. The sections were then incubated in avidin-biotin complex solutions (Vector Laboratories), stained with a DAB kit (Vector Laboratories) for 3-30 min, and counterstained with methyl green (Sigma-Aldrich). […]

[2] = Toxicity observations in mice treated with KY19382 for 10 wk; type: in vivo, mouse; settings: 0.1 mg/kg i.p. daily for 10 wk
Description: Figure S9. The effects of KY19382 on articular cartilage and liver tissues, or weight. Data are shown from mice used in Fig 5J. (A, B) H&E staining of articular cartilage (A) and liver (B) tissues. (C) During treatment, the weights of mice were measured every 5–7 d (mean ± SEM, n = 7∼15). Scale bars, 100 μm.
Cxxc5^−/− mice were established in a previous study ([Kim et al, 2015]). To manipulate growth plate senescence by estrogen, 3-wk-old Cxxc5^+/+ and Cxxc5^−/− male mice received weekly i.m. injections of either 70 μg/kg estradiol (E2) cypionate (Sigma-Aldrich) or vehicle (cottonseed oil) for 3 wk. To investigate the effects of KY19382 treatment on longitudinal bone growth, C57BL/6 male mice were purchased from KOATECH (Gyeonggido, Korea). KY19382 (0.1 mg/kg) was administered daily by i.p. injection to 3- and 7-wk-old mice for 2 wk or to 3-wk-old mice for 10 wk. For BrdU labeling experiments, the mice were i.p. injected with 50 mg/kg BrdU (Sigma-Aldrich) before 24 h to euthanize. All animal procedures were approved by the Institutional Animal Care and Use Committee of Yonsei University (Korea) and conducted based on the guidelines of the Korean Food and Drug Administration.

[3] = 3-wk-old mice, 0.1 mg/kg i.p. daily for 2 wk
[4] = 7-wk-old mice, 0.1 mg/kg i.p. daily for 2 wk

In the case of `CON=C1C(=C2C(=O)Nc3cc(Cl)c(Cl)cc32)Nc2ccccc21` [KY19382, 5,6-dichloroindirubin-3′-methoxime], the “BrdU-positive cells in growth plate” value [1, 3] is reported as “elevated”, the “height of each growth plate zone” value [1, 3] is reported as “elevated” and the “number of TRAP-positive foci in the growth plate/trabecular interface” value ([1]; 3-wk-old mice, 0.1 mg/kg i.p. daily for 2 wk, vs vehicle) is reported as “not different”. The length of tibiae ([1]; 3-wk-old mice, 0.1 mg/kg i.p. daily for 10 wk, vs vehicle) was “significantly increased”, the “nuclear β-catenin in growth plate chondrocytes” value [1, 4] was “dramatically increased” and the “numbers of proliferative and hypertrophic chondrocytes per column” value [1, 4] was “increased numbers”. For the same compound, the “total growth plate height (COL2A1 immunostaining)” value [1, 4] was “significantly increased”, the “TRAP-positive foci at cartilage/bone interface” value ([1]; 7-wk-old mice, 0.1 mg/kg i.p. daily for 2 wk, vs vehicle) was “elevated” and the “body weight during treatment” value [2] was “no difference in weight”. The “histology of articular cartilage and liver tissues” value [2] was “no histological abnormalities were detected”.
